Each structure is given as a SMILES string.

The term EC50 denotes the concentration at which the effect is half-maximal. For orientation: fraction unbound means the share of the substance not bound to proteins or other matrix. Low values mean extensive binding, high ones weak binding. Usually Papp A→B stands for the apparent permeability from the apical to the basolateral side of a cell layer. A lower Papp A→B goes with poor permeation. One may read the half-life as how long it takes for the measured level to halve. The low end stands for fast loss, the high end for slow loss. For orientation: Cmax means the maximum level reached in the sampled fluid or tissue. As usually defined, the Tmax is the time from dosing to the highest level. Broadly, the EC90 is the concentration at which the effect reaches the 90% level. As usually defined, the Kp is the ratio of the level in a tissue or fluid to that in plasma or blood.

The nature of series [1]: Intrinsic clearance Cli, rat. The class given is in vitro ADME.
The next series concerns the target hERG (Homo sapiens, UniProt Q12809). Kind of series: hERG (patch clamp). The class given is cell-based. On the technique in general: The hERG channel carries a current that helps repolarise heart muscle cells.
A further series deals with T1, Pgp (Homo sapiens, UniProt P08183).
T1 construct: endogenous in cells; host or cells: Caco-2
Kind of series: Pgp efflux, Caco-2. The class given is in vitro ADME. For orientation: Passage across Caco-2 layers is used to estimate intestinal permeability.

Series [2] deals with IM-9 ("normal" EBV immortalized B cell). Description: Trypan blue exclusion cell viability assay. The following applies: Homo sapiens, IM-9 cells, 72 h. The class given is cell-based. On the procedure: (§1) Cell viability assay. B and T cell viability was measured using the trypan blue exclusion method. Cells were grown in confluency conditions (2×10^6 cells/mL maximum) assuring the minimum basal apoptosis. […] Cell viability was quantified using the TC10™ automated cell counter (Biorad).
(§2) […]. The drugs were dissolved in DMSO to make 100× stock solutions for each concentration tested, so that the final volume of DMSO in each well was 1%. The viability of cells treated with these inhibitors was measured with a trypan blue exclusion assay (Hudson, 1976).
(§3) Cell viability was then quantified using the TC10™ automated cell counter (Biorad).

The test system of series [3] is KMH2 (Hodgkin's lymphoma) cells. Description: Trypan blue exclusion cell viability assay. To be noted: Homo sapiens, KM-H2, 72 h. The class given is cell-based. On the procedure: as §1, §2, §3
A further series can be described thus: Fu plasma, human. The class given is in vitro ADME.
A short description of a further series: Caco-2 permeability Papp. The class given is in vitro ADME. To be noted: human.
A further series addresses CYP450 2C19 (Homo sapiens, UniProt P33261). Description: CYP450 inhibition. The class given is in vitro ADME. To be noted: 2C19, at 1 uM.
Series [4] can be described thus: Mouse IV pharmacokinetics. To be noted: whole blood, [ ] = range; for Vd: read-out: Vss. The class given is in vivo.
The next series can be described thus: Fu Brain. The class given is in vitro ADME.
A short description of series [5]: Mouse PO pharmacokinetics 10 mg/kg. To be noted: in vivo, PO 10 mg/kg, [ ] = range.
Series [6] in a line: Intrinsic clearance Cli, human. The class given is in vitro ADME.
Series [7] has as its system BL-2 (Burkitt's lymphoma) cells. Description: Trypan blue exclusion cell viability assay. The class given is cell-based, human. As for the experimental part: as §1
(§4) The drugs were dissolved in DMSO to make 100× stock solutions for each concentration tested, so that the final volume of DMSO in each well was 1%.
as §3

Series [8] relates to Ramos (Burkitt's lymphoma) cells. Description: Trypan blue exclusion cell viability assay. The class given is cell-based, human. To be noted: Homo sapiens, 72 h. As for the experimental part:
as §1, §4, §3

A short description of series [9]: Intrinsic clearance Cli, mouse. The class given is in vitro ADME.
Series [10] has as its system "Normal" immortalized B lymphocytes (IM9). Kind of series: Induction of apoptosis, PARP-1 and caspase-3 cleavage by western blotting. The class given is cell-based, human. To be noted: IM9, 72 h. As for the experimental part:
(§5) “Normal” immortalized B lymphocytes (IM9), KMH2 (Hodgkin's lymphoma) and BL (BL2 and Ramos) cells were incubated with increasing concentrations (nM) of DDD86481 and monitored the cleavage of poly-ADP-ribose polymerase-1 (PARP-1) and caspase-3 after the 72 h time point. Western blotting was performed on cell lysates to monitor the cleavage or PARP-1 and caspase-3 as well as the presence of GAPDH as loading control (composite gels).

The test system of series [11] is KMH2 (Hodgkin's lymphoma) cells. The series is described as above. The following applies: KMH2, 72 h. The class given is cell-based, human. On the procedure: as §5
A further series deals with BL (BL2 and Ramos) cells. Described as above. The class given is cell-based, human. The following applies: BL cell lines, 72 h. On the procedure:
as §5

Series [12] deals with IM-9 ("normal" EBV immortalized B cell). Kind of series: MTS cell viability assay. The class given is cell-based. To be noted: Homo sapiens. On the procedure: (§6) […]. The drugs were dissolved in DMSO to make 100× stock solutions for each concentration tested, so that the final volume of DMSO in each well was 1%. MTS [(3-(4,5-dimethylthiazol-2-yl)-5-(3-carboxymethoxyphenyl)-2-(4-sulfophenyl)-2H-tetrazolium)] assay was used to measure the cytotoxicity of the drug (Cory et al., 1991).
(§7) In FIG. 9, Panel B, DDD86481 was used to treat BL cells and control cell lines [IM9 (“normal” B lymphocyte) and KMH2 (HL cell line) that expresses both NMTs]. […]. The EC50 data are summarized as follows.

The test system of series [13] is KMH2 (Hodgkin's lymphoma) cells. Description: MTS cell viability assay. The class given is cell-based. The following applies: Homo sapiens, KM-H2, 72 h. As for the experimental part: as §6, §7
In general terms: Tetrazolium dyes change colour on reduction, which living cells bring about.

Another series can be described thus: Fu plasma, mouse. The class given is in vitro ADME.
Series [14] concerns myristoylation in Ramos cells. Kind of series: Inhibition of myristoylation, alkynyl-myristate labeling and click chemistry. The class given is cell-based, human. To be noted: 2 h treatment. As for the experimental part:
(§8) Cells were labeled with 100 to 25 μM ω-alkynyl myristic acid 30 min prior to harvesting the cells and lysed in 0.1% SDS-RIPA-HEPES buffer. Protein (50-30 μg) from the resulting cell lysates were reacted with 100 μM azido-biotin using click chemistry and processed as described previously (Yap et al., 2010). Briefly, cells were starved of fatty acids by incubating in media (RPMI or DMEM) which were supplemented with 5% dextran-coated charcoal-treated FBS (DCC-FBS) for 1 h prior to labeling. Next, ω-alkynyl-myristic acid was dissolved in DMSO to generate 25 or 100 mM stock solutions. Typically, the cellular uptake of ω-alkynyl myristic acid typically was improved with saponification and conjugation to BSA. Therefore, prior to labeling, ω-alkynyl myristic acid was saponified with 20% molar excess of potassium hydroxide at 65° C. for 15 min. Next, serum-free culture media (pre-warmed) containing 20% fatty acid-free BSA at 37° C. was added to the saponified ω-alkynyl myristic acid and incubated for an additional 15 min at 37° C.
Subsequently, cells deprived of fatty acids were washed once with warm PBS and incubated in fresh RPMI or DMEM without any supplements. […]
(§9) In FIG. 9 E, the minimal dose of DDD86481 required to inhibit myristoylation in IM-9, BL2 and Ramos cell lines, was determined. […]

Series [15] deals with BL-2 (Burkitt's lymphoma) cells. Description: MTS cell viability assay. The class given is cell-based, human. As for the experimental part: as §6, §7
Series [16] has as its system Ramos (Burkitt's lymphoma) cells. Description: MTS cell viability assay. The class given is cell-based, human. As for the experimental part:
as §6, §7

Another series in a line: B:B Ratio. The class given is in vivo. The following applies: brain / blood.
The test system of series [17] is myristoylation in IM-9 cells. Kind of series: Inhibition of myristoylation, alkynyl-myristate labeling and click chemistry. The class given is cell-based, human. As for the experimental part: as §8
(§10) Subsequently, cells deprived of fatty acids were washed once with warm PBS and incubated in fresh RPMI or DMEM without any supplements. Next, the appropriate volume of 20× fatty acid-BSA conjugate in serum-free media was added to the cells, to ensure that the final concentration of BSA was 1% and Q-alkynyl myristic acid was at the indicated concentration (25 μM or 100 μM) for each respective experiment. DMSO or unlabeled fatty acids conjugated to BSA were used as controls for the experiments performed. Cells were labeled with ω-alkynyl myristic acid for 30 min at 37° C. in a 5% CO2 humidified incubator prior to harvesting. Cells were harvested in 0.1% SDS-RIPA-HEPES buffer that was supplemented with 1× complete protease inhibitor (EDTA-free).
(§11) After labeling cells with ω-alkynyl myristic acid, the resulting lysates were subjected to click chemistry with azido-biotin to enable the detection of the myristoylated proteins by ECL as described previously (Yap et al., 2010). Typically, cell lysates (30-50 μg of protein) were adjusted to contain 1% SDS and incubated with 100 μM Tris-(benzyltriazolylmethyl)amine (TBTA), 1 mM CuSO4, 1 mM Tris-carboxyethylphosphine (TCEP), and 100 μM azido-biotin at 37° C. for 30 min in darkness, in order for the click reaction to proceed. Next, 10 volumes of ice-cold acetone was added to stop the click reaction and proteins were precipitated at −20° C. overnight. Subsequently, the acetone precipitated proteins were centrifuged at 16,000 g for 10 min, resuspended in 1×SDS-PAGE sample buffer with 20 mM DTT. […]
as §9

Series [18] relates to myristoylation in BL2 cells. Described as above. The class given is cell-based, human. As for the experimental part:
as §8, §10, §11, §9

Sequence of hERG (Q12809 whole entry): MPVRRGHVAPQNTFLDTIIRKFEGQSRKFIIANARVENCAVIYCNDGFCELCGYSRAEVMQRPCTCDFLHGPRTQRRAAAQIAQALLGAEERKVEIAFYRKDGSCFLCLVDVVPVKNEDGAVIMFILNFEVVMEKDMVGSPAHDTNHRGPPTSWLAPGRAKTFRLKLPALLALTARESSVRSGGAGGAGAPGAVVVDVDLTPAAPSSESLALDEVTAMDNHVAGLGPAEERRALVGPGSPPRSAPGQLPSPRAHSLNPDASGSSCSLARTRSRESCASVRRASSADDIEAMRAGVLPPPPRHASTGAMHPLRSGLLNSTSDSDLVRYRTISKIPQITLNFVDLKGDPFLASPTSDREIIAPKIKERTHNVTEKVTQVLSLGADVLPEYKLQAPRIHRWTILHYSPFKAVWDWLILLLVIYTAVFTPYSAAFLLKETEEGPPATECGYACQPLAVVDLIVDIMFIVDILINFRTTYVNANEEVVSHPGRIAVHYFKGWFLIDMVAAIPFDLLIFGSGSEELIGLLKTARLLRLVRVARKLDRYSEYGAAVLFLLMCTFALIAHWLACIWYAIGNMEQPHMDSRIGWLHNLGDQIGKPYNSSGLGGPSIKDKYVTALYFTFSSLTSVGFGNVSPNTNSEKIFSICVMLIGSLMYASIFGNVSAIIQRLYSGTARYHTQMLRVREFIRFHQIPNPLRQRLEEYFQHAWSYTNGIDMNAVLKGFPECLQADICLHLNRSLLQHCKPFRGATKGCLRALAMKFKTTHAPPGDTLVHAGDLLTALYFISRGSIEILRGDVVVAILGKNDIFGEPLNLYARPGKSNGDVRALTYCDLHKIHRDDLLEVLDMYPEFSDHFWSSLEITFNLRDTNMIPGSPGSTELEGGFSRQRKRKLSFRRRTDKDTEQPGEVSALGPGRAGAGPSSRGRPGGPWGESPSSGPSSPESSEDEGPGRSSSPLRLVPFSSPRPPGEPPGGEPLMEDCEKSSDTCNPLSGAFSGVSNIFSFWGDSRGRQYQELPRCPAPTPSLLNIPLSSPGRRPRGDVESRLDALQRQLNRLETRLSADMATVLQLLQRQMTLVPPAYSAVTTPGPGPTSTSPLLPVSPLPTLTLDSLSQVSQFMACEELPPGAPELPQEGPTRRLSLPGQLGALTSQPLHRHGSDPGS
Sequence of CYP450 2C19 (P33261 whole entry): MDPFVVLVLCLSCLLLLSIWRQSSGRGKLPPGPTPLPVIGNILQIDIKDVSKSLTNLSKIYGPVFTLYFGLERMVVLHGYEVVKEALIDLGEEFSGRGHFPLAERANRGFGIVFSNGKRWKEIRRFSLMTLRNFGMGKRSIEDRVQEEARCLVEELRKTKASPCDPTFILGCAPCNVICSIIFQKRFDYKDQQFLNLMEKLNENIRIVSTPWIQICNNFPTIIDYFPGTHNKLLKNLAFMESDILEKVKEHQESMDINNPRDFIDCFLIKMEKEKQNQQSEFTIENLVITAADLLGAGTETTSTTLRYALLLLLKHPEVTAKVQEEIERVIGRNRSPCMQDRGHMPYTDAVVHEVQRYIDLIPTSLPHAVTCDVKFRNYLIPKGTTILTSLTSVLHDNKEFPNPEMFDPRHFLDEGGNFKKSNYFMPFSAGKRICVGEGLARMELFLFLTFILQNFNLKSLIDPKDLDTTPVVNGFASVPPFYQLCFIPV
T1 sequence (P08183 whole entry): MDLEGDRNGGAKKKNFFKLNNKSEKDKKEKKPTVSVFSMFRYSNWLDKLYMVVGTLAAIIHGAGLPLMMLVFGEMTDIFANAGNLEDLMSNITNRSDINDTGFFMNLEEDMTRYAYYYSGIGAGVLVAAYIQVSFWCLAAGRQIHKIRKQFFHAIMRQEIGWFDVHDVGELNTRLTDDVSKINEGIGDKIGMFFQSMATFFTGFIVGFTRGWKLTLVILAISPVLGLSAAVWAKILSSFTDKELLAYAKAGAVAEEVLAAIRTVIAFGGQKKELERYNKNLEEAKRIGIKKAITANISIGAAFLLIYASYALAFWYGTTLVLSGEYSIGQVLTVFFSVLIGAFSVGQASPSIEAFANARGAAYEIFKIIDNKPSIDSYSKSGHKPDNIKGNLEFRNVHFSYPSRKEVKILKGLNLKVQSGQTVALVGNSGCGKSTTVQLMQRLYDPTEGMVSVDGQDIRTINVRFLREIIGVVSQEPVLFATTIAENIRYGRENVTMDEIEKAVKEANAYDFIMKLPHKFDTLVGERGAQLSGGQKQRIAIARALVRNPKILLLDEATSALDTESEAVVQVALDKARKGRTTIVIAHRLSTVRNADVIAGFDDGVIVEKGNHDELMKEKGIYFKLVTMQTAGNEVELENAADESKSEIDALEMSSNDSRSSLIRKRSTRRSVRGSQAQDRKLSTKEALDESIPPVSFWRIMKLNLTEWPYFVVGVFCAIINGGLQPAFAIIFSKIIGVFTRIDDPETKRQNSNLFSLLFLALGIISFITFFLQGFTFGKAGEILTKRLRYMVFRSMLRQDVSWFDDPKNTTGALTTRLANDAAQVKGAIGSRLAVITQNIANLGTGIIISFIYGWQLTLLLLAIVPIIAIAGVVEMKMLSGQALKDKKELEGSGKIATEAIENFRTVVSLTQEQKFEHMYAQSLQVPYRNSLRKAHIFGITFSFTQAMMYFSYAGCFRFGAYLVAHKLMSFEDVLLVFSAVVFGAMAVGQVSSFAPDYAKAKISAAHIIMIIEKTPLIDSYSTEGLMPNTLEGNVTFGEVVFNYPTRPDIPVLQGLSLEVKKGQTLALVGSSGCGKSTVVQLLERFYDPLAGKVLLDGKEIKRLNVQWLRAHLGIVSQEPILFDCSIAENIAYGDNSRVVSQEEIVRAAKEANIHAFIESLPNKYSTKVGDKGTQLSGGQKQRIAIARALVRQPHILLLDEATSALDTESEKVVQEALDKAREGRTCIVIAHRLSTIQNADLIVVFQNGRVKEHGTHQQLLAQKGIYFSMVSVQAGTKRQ

With `Cc1nn(C)c(C)c1NS(=O)(=O)c1c(Cl)cc(-c2ccnc(N3CCNCC3)c2)cc1Cl` [DDD85646], the “Cli Rat” value in series [1] is 0.5 mL/min/g. For the same compound, the “hERG (patch clamp)” value at hERG was found to be 27.7. The Pgp result at Pgp is reported as “YES (Efflux ratio =”. Besides, the 50% effective concentration (EC50) in series [2] was 7080 nM; in series [3] it was 29600 nM; in series [7] (Homo sapiens, BL2, 72 h), 430 nM; in [8], 370 nM. Further, the fraction unbound in the series “Fu plasma, human” worked out at 0.176; in the series “Fu Brain”, 0.068. For the same compound, the Papp A→B in “Caco-2 permeability Papp” is 4.3 ×10⁻⁶ cm/s. Further, the CYP450 inhibition on CYP450 2C19 is listed as 2C19 (19% at 1 uM). This compound showed a half-life in series [4] of 1.3 h. In series [4], the Vd came to 0.6 L/kg. This compound registered a peak concentration (Cmax) in series [5] of 2690 ng/mL. Also, the Tmax in series [5] amounted to 0.25 h. In series [6], the “Cli Human” value is 1.2 mL/min/g. Further, in series [7] (BL-2 and Ramos vs immortalized "normal" B cells or KMH2, trypan blue), the “times more sensitive than cells expressing both NMTs” value is recorded as 15-72 times. The “Cli Mouse” value in series [9] is given as 0.6 mL/min/g.
Take `Cc1c(NS(=O)(=O)c2c(Cl)cc(-c3ccnc(N4CCNCC4)c3)cc2Cl)c(CC(C)C)nn1C` [DDD86481]: in series [1], the “Cli Rat” value is listed as 1.0 mL/min/g. Besides, the “PARP-1 and caspase-3 cleavage” value is “No PARP-1 or caspase-3 cleavage was observed” in series [10]; “occurred in a dose-dependent fashion” in the series with BL (BL2 and Ramos) cells. The PARP-1 cleavage entry in series [11] is on record as “observed at higher concentrations, although it was minimal”. Also, the half-life in series [4] was 1.5 h; in series [5], 5.7 h. Also, the Vd in [4] was determined as 0.4 L/kg. The EC90 in series [12] (IM-9, IM9 cells, calculated from FIG. 9B) was 134000 nM; in series [15] (Homo sapiens, BL2), 210 nM; in [16] (Homo sapiens, Ramos), 400 nM. Besides, the EC50 worked out at 2200 nM in series [12] (IM-9 cells, 72 h, MTS); 12600 nM in series [13]; 58 nM in [15] (Homo sapiens, BL2, 72 h); 42 nM in series [16] (Homo sapiens, Ramos, 72 h). In the series “Fu plasma, mouse”, this compound showed a fraction unbound of 0.067. The “minimal dose at which incorporation of alkyne-myristate label decreases” value in [14] came to 50 nM; in series [17] (IM-9, 2 h treatment), 100 nM; in series [18] (BL-2, 2 h treatment) it was 50 nM. In addition, in series [15] (BL-2 and Ramos vs immortalized "normal" B cells or KMH2, MTS), the “times more sensitive than cells expressing both NMTs” value is 15-72 times. In series [16] (ratios of the EC50's and EC90's, normal B cell line vs Burkitt lymphoma cell lines), the “factor by which cancer cells are preferentially killed” value is on record as more than 300 fold. For the same compound, the Kp in “B:B Ratio” is 0.04. In [5], the Cmax is 11200 ng/mL. Besides, the Tmax in [5] was determined as 2 h. The inhibition of myristoylation result in [17] (IM-9, 1 μM, after one hour of treatment) is “nearly complete inhibition of myristoylation”; in series [18] (BL2, 1 μM, after one hour of treatment) it was “nearly complete inhibition of myristoylation”. Moreover, the “Cli Human” value in series [6] is 0.7 mL/min/g. The “Cli Mouse” value in [9] is given as less than 0.5 mL/min/g.
